Source: patent US20250243172A1, “NLRP3 INFLAMMASOME INHIBITORS AND COMPOSITIONS AND USES THEREOF” (VIRGINIA COMMONWEALTH UNIVERSITY, priority 2022, published 2025)

Target: human recombinant NLRP3 protein
Assay: Binding of NSIs to recombinant NLRP3 protein by microscale thermophoresis (Monolith NT.Automated)
Conditions: MST; His-NLRP3 labeled with RED-tris-NTA dye, 40 min incubation in PBS-T; duplicate reads
Description: Monolith NT. Automated instrument was used to measure the Kd value. A range of concentrations of NSIs were incubated and His-NLRP3 pre-labeled with RED-tris-NTA dye kit (SKU: MO-L018) for 40 min in PBS-T assay buffer (1×PBS with 0.05% Tween® 20). The samples were loaded into NanoTemper® glass capillaries and series of ligand-induced changes in thermophoresis curves were gained using an Excitation power of 80% and a MST power of high. Kd values were calculated using the mass action equation with NanoTemper software from duplicate reads of an experiment.
Table 1 provides exemplary binding affinities of NSIs to human recombinant NLRP3 protein.

| Kd | Structure (SMILES) |
| --- | --- |
| 3 µM | COc1ccc(Cl)cc1Cn1cc(-c2ccc(C(=O)N3CCC3)cc2)nn1 [YM-III-11] |
| 0.98 µM | COc1ccc(Cl)cc1Cn1cc(C(=O)N2CC(F)(F)C2)nn1 [YM-III-12] |
